Data reported in ChEMBL document CHEMBL1153291, “Synthesis and structure-activity relationships of novel benzofuran farnesyltransferase inhibitors” (Bioorg Med Chem Lett, 2009).

Experiments:
[1] = molecular target: Protein farnesyltransferase (Homo sapiens, UniProt P49354+P49356); assay: Inhibition of human FTase; type: protein-complex assay
[2] = tested on: QG-56; assay: Antiproliferative activity against human QG56 cells; type: functional, cell-based
[3] = AUC (0 to 24 hrs) in mouse at 25 mg/kg, iv; type: ADME, organism-based; design: time < 24 hr, dose 25 mg/kg, route intravenous; conditions: plasma
[4] = Half life in mouse at 25 mg/kg, iv; type: ADME, organism-based; design: dose 25 mg/kg, route intravenous; conditions: in vivo
[5] = Cmax in mouse at 25 mg/kg, po; type: ADME, organism-based; design: dose 25 mg/kg, route oral; conditions: in vivo
[6] = AUC (0 to 24 hrs) in mouse at 25 mg/kg, po; type: ADME, organism-based; design: time < 24 hr, dose 25 mg/kg, route oral; conditions: plasma
[7] = Apparent oral clearance in mouse at 25 mg/kg, po; type: ADME, organism-based; design: dose 25 mg/kg, route oral; conditions: in vivo
[8] = Half life in mouse at 25 mg/kg, po; type: ADME, organism-based; design: dose 25 mg/kg, route oral; conditions: in vivo
[9] = Oral bioavailability in mouse at 25 mg/kg; type: ADME, organism-based; conditions: in vivo
[10] = AUC (0 to 24 hrs) in mouse at 100 mg/kg, po; type: ADME, organism-based; design: time < 24 hr, dose 100 mg/kg, route oral; conditions: plasma
[11] = Apparent oral clearance in mouse at 100 mg/kg, po; type: ADME, organism-based; design: dose 100 mg/kg, route oral; conditions: in vivo
[12] = Half life in mouse at 100 mg/kg, po; type: ADME, organism-based; design: dose 100 mg/kg, route oral; conditions: in vivo
[13] = Oral bioavailability in mouse at 100 mg/kg; type: ADME, organism-based; conditions: in vivo
[14] = tested on: QG-56; assay: Antitumor activity against human QG56 cells xenografted in mouse assessed as reduction of tumor volume at 200 mg/kg, po administered 5 times a week for 2 weeks; type: functional, organism-based; design: dose 200 mg/kg
[15] = tested on: QG-56; assay: Toxicity in mouse xenografted with human QG56 cells assessed as reduction of body weight loss at 200 mg/kg, po administered 5 times a week for 2 weeks; type: functional, organism-based; design: dose 200 mg/kg
[16] = Cmax in mouse at 100 mg/kg, po; type: ADME, organism-based; design: dose 100 mg/kg, route oral; conditions: in vivo

| Compound | IC50 [1] [nM] | IC50 [2] [nM] | also measured |
| --- | --- | --- | --- |
| Cn1cncc1C(O)(c1ccc(C#N)cc1)c1cc2cc([N+](=O)[O-])cc(-c3ccc(C#N)cc3)c2o1 (racemic) | 3.4 | 32.6 |  |
| COc1cccc(-c2cc(CO)cc3cc(C(O)(c4ccc(C#N)cc4)c4cncn4C)oc23)c1 (racemic) | 1 | 16.8 |  |
| COc1cccc(-c2cc([N+](=O)[O-])cc3cc(C(O)(c4ccc(C#N)cc4)c4cncn4C)oc23)c1 (racemic) | 8.5 | 38.8 |  |
| Cn1cncc1[C@@](N)(c1ccc(C#N)cc1)c1cc2cc(C#N)cc(-c3cccc(C#N)c3)c2o1 | 0.7 | 2 |  |
| Cc1cccc(-c2cc([N+](=O)[O-])cc3cc(C(O)(c4ccc(C#N)cc4)c4cncn4C)oc23)c1 (racemic) | 11 | 23.2 |  |
| COc1cccc(-c2cc([N+](=O)[O-])cc3cc([C@](N)(c4ccc(C#N)cc4)c4cncn4C)oc23)c1 | 0.8 | 1.1 |  |
| COc1ccc(-c2cc([N+](=O)[O-])cc3cc(C(O)(c4ccc(C#N)cc4)c4cncn4C)oc23)cc1 (racemic) | 4 | 36 |  |
| COc1cccc(-c2cc(C#N)cc3cc([C@](N)(c4ccc(C#N)cc4)c4cncn4C)oc23)c1 | 1.2 | 1.5 |  |
| COc1cccc(-c2cc(C(=O)NN3CCOCC3)cc3cc(C(O)(c4ccc(C#N)cc4)c4cncn4C)oc23)c1 (racemic) | 2.6 |  |  |
| COc1cccc(-c2cc(CN(C)C)cc3cc(C(O)(c4ccc(C#N)cc4)c4cncn4C)oc23)c1 (racemic) | 11 | 142 |  |
| Cn1cncc1C(O)(c1ccc(C#N)cc1)c1cc2cc([N+](=O)[O-])cc(-c3ccc(F)cc3)c2o1 (racemic) | 7.2 | 158 |  |
| Cn1cncc1C(O)(c1ccc(C#N)cc1)c1cc2cc(C#N)cc(-c3ccccc3)c2o1 (racemic) | 2.4 | 14.5 |  |
| COc1cccc(-c2cc(C=O)cc3cc(C(O)(c4ccc(C#N)cc4)c4cncn4C)oc23)c1 (racemic) | 2 | 15.2 |  |
| COC(=O)c1cc(-c2cccc(OC)c2)c2oc(C(O)(c3ccc(C#N)cc3)c3cncn3C)cc2c1 (racemic) | 3.2 | 36.3 |  |
| Cn1cncc1C(O)(c1ccc(Cl)cc1)c1cc2cc(C(=O)NN3CCOCC3)cc(-c3ccccc3)c2o1 (racemic) |  | 73.6 |  |
| Cn1cncc1[C@@](N)(c1ccc(C#N)cc1)c1cc2cc(C#N)cc(-c3cccc(F)c3)c2o1 | 1.1 | 2 | AUC(0-t) at 24 h [3]: 15400 ng·h/mL; half-life [4]: 1.2 h; Cmax [5]: 1570 ng/mL; AUC(0-t) at 24 h [6]: 10200 ng·h/mL; CL/F [7]: 40.8 mL/min/kg; half-life [8]: 2.4 h; bioavailability [9]: 66%; AUC(0-t) at 24 h [10]: 31300 ng·h/mL; CL/F [11]: 41 mL/min/kg; half-life [12]: 12.3 h; bioavailability [13]: 51%; Activity [14]: Non-toxic; Activity [15]: Not toxic; Cmax [16]: 5010 ng/mL |
| Cn1cncc1C(O)(c1ccc(C#N)cc1)c1cc2cc([N+](=O)[O-])cc(-c3cccc(C#N)c3)c2o1 (racemic) |  | 22.9 |  |
| COc1cccc(-c2cc(C(N)=O)cc3cc(C(O)(c4ccc(C#N)cc4)c4cncn4C)oc23)c1 (racemic) | 0.9 | 8.2 |  |

The next lines start with results.

| IC50 [1] [nM] | Compound | IC50 [2] [nM] | also measured |
| --- | --- | --- | --- |
| 170 | Cn1cncc1C(O)(c1ccc(Cl)cc1)c1cc2cc([N+](=O)[O-])cc(-c3ccccc3)c2o1 (racemic) | 1880 |  |
| 49 | Cn1cncc1[C@](N)(c1ccc(C#N)cc1)c1cc2cc([N+](=O)[O-])cc(-c3ccccc3)c2o1 | 206 |  |
| 250 | COc1ccc(C(O)(c2cc3cc([N+](=O)[O-])cc(-c4ccccc4)c3o2)c2cncn2C)cc1 (racemic) | 4970 |  |
| 1.5 | Cn1cncc1[C@@](N)(c1ccc(C#N)cc1)c1cc2cc([N+](=O)[O-])cc(-c3ccccc3)c2o1 | 5.9 |  |
| 6.4 | Cn1cncc1C(O)(c1ccc(C#N)cc1)c1cc2cc([N+](=O)[O-])cc(-c3ccccc3)c2o1 (racemic) | 1480 |  |
| 360 | Cn1cncc1C(O)(c1ccc(I)cc1)c1cc2cc([N+](=O)[O-])cc(-c3ccccc3)c2o1 (racemic) | > 10000 |  |
| 30 | Cn1cncc1C(O)(c1ccc([N+](=O)[O-])cc1)c1cc2cc([N+](=O)[O-])cc(-c3ccccc3)c2o1 (racemic) | 547 |  |
| 6.3 | Cn1cncc1C(O)(c1ccc(C#N)cc1)c1cc2cc([N+](=O)[O-])cc(-c3cccc(F)c3)c2o1 (racemic) | 145 |  |
| 360 | Cn1cncc1C(O)(c1ccc(Br)cc1)c1cc2cc([N+](=O)[O-])cc(-c3ccccc3)c2o1 (racemic) | 1480 |  |
| 850 | Cn1cncc1C(O)(c1ccc(C(=O)O)cc1)c1cc2cc([N+](=O)[O-])cc(-c3ccccc3)c2o1 (racemic) | > 10000 |  |
| > 1000 | Cn1cncc1C(O)(c1ccc(C(=O)OC(C)(C)C)cc1)c1cc2cc([N+](=O)[O-])cc(-c3ccccc3)c2o1 (racemic) | 6250 |  |
| 3.3 | Cn1cncc1C(O)(c1ccc(C#N)cc1)c1cc2cc([N+](=O)[O-])cc(-c3ccccc3F)c2o1 (racemic) | 89.5 |  |
